{"source": "ChEMBL document CHEMBL1201862", "about": "“PubChem BioAssay data set” (2004)", "test_in_all_cases": "DTP human tumour cell line panel, 48 h", "key": {"[1]": {"system": "A498"}, "[2]": {"system": "CCRF-CEM"}, "[3]": {"system": "EKVX"}, "[4]": {"system": "HCC 2998"}, "[5]": {"system": "HL-60"}, "[6]": {"system": "KM12"}, "[7]": {"system": "M14"}, "[8]": {"system": "MCF7"}, "[9]": {"system": "MDA-MB-435"}, "[10]": {"system": "NCI-H23"}, "[11]": {"system": "NCI-H522"}, "[12]": {"system": "SF-268"}, "[13]": {"system": "SF-295"}, "[14]": {"system": "SK-MEL-28"}, "[15]": {"system": "SN12C"}, "[16]": {"system": "SNB-19"}, "[17]": {"system": "SNB-75"}, "[18]": {"system": "TK-10"}, "[19]": {"system": "UACC-257"}, "[20]": {"system": "UO-31"}}, "note": "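Method: 48-hour compound exposure of cells in 96-well plates, five concentrations, linear interpolation of endpoints. At the GI50, growth is halved.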 Calls of active or inactive are those of the source. Cut-off read from the data, not from the text of the source: active = GI50 up to about 1.1 µM and inactive = higher.", "data": [{"smiles": "CN1CCC/C1=C1\\C(=O)c2cccn2C1=O", "values": [{"measurement": "GI50", "setting": "[1]", "value": "> 100 µM (inactive)"}, {"measurement": "GI50", "setting": "[2]", "value": "> 100 µM (inactive)"}, {"measurement": "GI50", "setting": "[3]", "value": "> 100 µM (inactive)"}, {"measurement": "GI50", "setting": "[4]", "value": "> 100 µM (inactive)"}, {"measurement": "GI50", "setting": "[5]", "value": "> 100 µM (inactive)"}, {"measurement": "GI50", "setting": "[6]", "value": "> 100 µM (inactive)"}, {"measurement": "GI50", "setting": "[7]", "value": "> 100 µM (inactive)"}, {"measurement": "GI50", "setting": "[8]", "value": "> 100 µM (inactive)"}, {"measurement": "GI50", "setting": "[9]", "value": "> 100 µM (inactive)"}, {"measurement": "GI50", "setting": "[10]", "value": "> 100 µM (inactive)"}, {"measurement": "GI50", "setting": "[11]", "value": "> 100 µM (inactive)"}, {"measurement": "GI50", "setting": "[12]", "value": "> 100 µM (inactive)"}, {"measurement": "GI50", "setting": "[13]", "value": "> 100 µM (inactive)"}, {"measurement": "GI50", "setting": "[14]", "value": "> 100 µM (inactive)"}, {"measurement": "GI50", "setting": "[15]", "value": "> 100 µM (inactive)"}, {"measurement": "GI50", "setting": "[16]", "value": "> 100 µM (inactive)"}, {"measurement": "GI50", "setting": "[17]", "value": "> 100 µM (inactive)"}, {"measurement": "GI50", "setting": "[18]", "value": "> 100 µM (inactive)"}, {"measurement": "GI50", "setting": "[19]", "value": "> 100 µM (inactive)"}, {"measurement": "GI50", "setting": "[20]", "value": "> 100 µM (inactive)"}]}, {"smiles": "O=C1c2ccccc2C(=O)c2sc(Nc3cc(Cl)ccc3Cl)nc21", "values": [{"measurement": "GI50", "setting": "[1]", "value": "21 µM (inactive)"}, {"measurement": "GI50", "setting": "[2]", "value": "4.29 µM (inactive)"}, {"measurement": "GI50", "setting": "[3]", "value": "12.9 µM (inactive)"}, {"measurement": "GI50", "setting": "[4]", "value": "5.86 µM (inactive)"}, {"measurement": "GI50", "setting": "[5]", "value": "0.736 µM (active)"}, {"measurement": "GI50", "setting": "[6]", "value": "12.2 µM (inactive)"}, {"measurement": "GI50", "setting": "[7]", "value": "4.69 µM (inactive)"}, {"measurement": "GI50", "setting": "[8]", "value": "1.7 µM (inactive)"}, {"measurement": "GI50", "setting": "[9]", "value": "2.01 µM (inactive)"}, {"measurement": "GI50", "setting": "[10]", "value": "4.72 µM (inactive)"}, {"measurement": "GI50", "setting": "[11]", "value": "2.95 µM (inactive)"}, {"measurement": "GI50", "setting": "[12]", "value": "4.09 µM (inactive)"}, {"measurement": "GI50", "setting": "[13]", "value": "4.03 µM (inactive)"}, {"measurement": "GI50", "setting": "[14]", "value": "6.7 µM (inactive)"}, {"measurement": "GI50", "setting": "[15]", "value": "2.08 µM (inactive)"}, {"measurement": "GI50", "setting": "[16]", "value": "14.3 µM (inactive)"}, {"measurement": "GI50", "setting": "[17]", "value": "15.1 µM (inactive)"}, {"measurement": "GI50", "setting": "[18]", "value": "15 µM (inactive)"}, {"measurement": "GI50", "setting": "[19]", "value": "2.51 µM (inactive)"}, {"measurement": "GI50", "setting": "[20]", "value": "6.03 µM (inactive)"}]}, {"smiles": "COc1ccc(-c2c(C#N)c(=O)nc(SC)n2C2OCC(OC(C)=O)C(OC(C)=O)C2OC(C)=O)cc1", "note": "(stereo not drawn)", "values": [{"measurement": "GI50", "setting": "[1]", "value": "62.1 µM (inactive)"}, {"measurement": "GI50", "setting": "[2]", "value": "29 µM (inactive)"}, {"measurement": "GI50", "setting": "[3]", "value": "87.5 µM (inactive)"}, {"measurement": "GI50", "setting": "[4]", "value": "> 100 µM (inactive)"}, {"measurement": "GI50", "setting": "[5]", "value": "22.2 µM (inactive)"}, {"measurement": "GI50", "setting": "[6]", "value": "> 100 µM (inactive)"}, {"measurement": "GI50", "setting": "[7]", "value": "> 100 µM (inactive)"}, {"measurement": "GI50", "setting": "[8]", "value": "> 100 µM (inactive)"}, {"measurement": "GI50", "setting": "[9]", "value": "> 100 µM (inactive)"}, {"measurement": "GI50", "setting": "[10]", "value": "> 100 µM (inactive)"}, {"measurement": "GI50", "setting": "[11]", "value": "74 µM (inactive)"}, {"measurement": "GI50", "setting": "[12]", "value": "55 µM (inactive)"}, {"measurement": "GI50", "setting": "[13]", "value": "> 100 µM (inactive)"}, {"measurement": "GI50", "setting": "[14]", "value": "> 100 µM (inactive)"}, {"measurement": "GI50", "setting": "[15]", "value": "> 100 µM (inactive)"}, {"measurement": "GI50", "setting": "[16]", "value": "91.8 µM (inactive)"}, {"measurement": "GI50", "setting": "[17]", "value": "95.9 µM (inactive)"}, {"measurement": "GI50", "setting": "[18]", "value": "> 100 µM (inactive)"}, {"measurement": "GI50", "setting": "[19]", "value": "> 100 µM (inactive)"}, {"measurement": "GI50", "setting": "[20]", "value": "38.6 µM (inactive)"}]}, {"smiles": "C=CCn1c(N)c(C#N)c(C#N)c1CCC", "values": [{"measurement": "GI50", "setting": "[1]", "value": "> 100 µM (inactive)"}, {"measurement": "GI50", "setting": "[2]", "value": "> 100 µM (inactive)"}, {"measurement": "GI50", "setting": "[3]", "value": "42.7 µM (inactive)"}, {"measurement": "GI50", "setting": "[4]", "value": "> 100 µM (inactive)"}, {"measurement": "GI50", "setting": "[5]", "value": "> 100 µM (inactive)"}, {"measurement": "GI50", "setting": "[6]", "value": "> 100 µM (inactive)"}, {"measurement": "GI50", "setting": "[7]", "value": "> 100 µM (inactive)"}, {"measurement": "GI50", "setting": "[8]", "value": "> 100 µM (inactive)"}, {"measurement": "GI50", "setting": "[9]", "value": "> 100 µM (inactive)"}, {"measurement": "GI50", "setting": "[10]", "value": "> 100 µM (inactive)"}, {"measurement": "GI50", "setting": "[11]", "value": "> 100 µM (inactive)"}, {"measurement": "GI50", "setting": "[12]", "value": "> 100 µM (inactive)"}, {"measurement": "GI50", "setting": "[13]", "value": "> 100 µM (inactive)"}, {"measurement": "GI50", "setting": "[15]", "value": "> 100 µM (inactive)"}, {"measurement": "GI50", "setting": "[16]", "value": "> 100 µM (inactive)"}, {"measurement": "GI50", "setting": "[17]", "value": "25 µM (inactive)"}, {"measurement": "GI50", "setting": "[18]", "value": "> 100 µM (inactive)"}, {"measurement": "GI50", "setting": "[19]", "value": "> 100 µM (inactive)"}, {"measurement": "GI50", "setting": "[20]", "value": "> 100 µM (inactive)"}]}, {"smiles": "C[C@H]1C/C=C/[C@H]2[C@@H]3O[C@]3(C)[C@@H](C)[C@H]3[C@H](Cc4ccccc4)NC(=O)[C@]32OC(=O)O/C=C/[C@@](C)(O)C1=O", "note": "[CYTOCHALASIN E]", "values": [{"measurement": "GI50", "setting": "[1]", "value": "0.0181 µM (active)"}, {"measurement": "GI50", "setting": "[2]", "value": "0.021 µM (active)"}, {"measurement": "GI50", "setting": "[3]", "value": "0.075 µM (active)"}, {"measurement": "GI50", "setting": "[4]", "value": "0.138 µM (active)"}, {"measurement": "GI50", "setting": "[5]", "value": "0.0838 µM (active)"}, {"measurement": "GI50", "setting": "[6]", "value": "17.5 µM (inactive)"}, {"measurement": "GI50", "setting": "[7]", "value": "0.0436 µM (active)"}, {"measurement": "GI50", "setting": "[8]", "value": "0.0292 µM (active)"}, {"measurement": "GI50", "setting": "[9]", "value": "18.9 µM (inactive)"}, {"measurement": "GI50", "setting": "[10]", "value": "0.197 µM (active)"}, {"measurement": "GI50", "setting": "[11]", "value": "0.0431 µM (active)"}, {"measurement": "GI50", "setting": "[12]", "value": "0.0638 µM (active)"}, {"measurement": "GI50", "setting": "[14]", "value": "0.2 µM (active)"}, {"measurement": "GI50", "setting": "[15]", "value": "3.16 µM (inactive)"}, {"measurement": "GI50", "setting": "[16]", "value": "0.0604 µM (active)"}, {"measurement": "GI50", "setting": "[17]", "value": "0.0102 µM (active)"}, {"measurement": "GI50", "setting": "[18]", "value": "< 0.01 µM (active)"}, {"measurement": "GI50", "setting": "[19]", "value": "0.263 µM (active)"}, {"measurement": "GI50", "setting": "[20]", "value": "0.0199 µM (active)"}]}]}
